Measurements taken from the CheMixHub viscosity set.
“And” between values parts separate entries of the source, which are not always exact repeats. Equal entries are not always repeated. ± gives the uncertainty stated by the source.

Assay: xn = mol fraction of the nth substance listed

CCc1ccccc1 + c1ccccc1
Conditions	viscosity
293.15 K, 101.33 kPa, x2 = 0.2323	0.657 ± 0.0058 mPa·s
293.15 K, 101.33 kPa, x2 = 0.4707	0.646 ± 0.0057 mPa·s
293.15 K, 101.33 kPa, x2 = 0.5427	0.644 ± 0.0057 mPa·s
293.15 K, 101.33 kPa, x2 = 0.7124	0.635 ± 0.0057 mPa·s
293.15 K, 101.33 kPa, x2 = 0.8608	0.64 ± 0.0057 mPa·s
298.15 K, 101.3 kPa, x2 = 0.0268	0.632 ± 0.0054 mPa·s
298.15 K, 101.3 kPa, x2 = 0.1358	0.6249 ± 0.0053 mPa·s
298.15 K, 101.3 kPa, x2 = 0.2562	0.6202 ± 0.0053 mPa·s
298.15 K, 101.3 kPa, x2 = 0.3579	0.6177 ± 0.0053 mPa·s
298.15 K, 101.3 kPa, x2 = 0.4426	0.6157 ± 0.0053 mPa·s
298.15 K, 101.3 kPa, x2 = 0.5472	0.6134 ± 0.0052 mPa·s
298.15 K, 101.3 kPa, x2 = 0.6302	0.6115 ± 0.0052 mPa·s
298.15 K, 101.3 kPa, x2 = 0.7423	0.608 ± 0.0052 mPa·s
298.15 K, 101.3 kPa, x2 = 0.8318	0.6056 ± 0.0052 mPa·s
298.15 K, 101.3 kPa, x2 = 0.9404	0.6027 ± 0.0052 mPa·s
298.15 K, 101.33 kPa, x1 = 0.1	0.599 ± 0.016 mPa·s
298.15 K, 101.33 kPa, x1 = 0.2	0.601 ± 0.006 mPa·s and 0.601 ± 0.016 mPa·s
298.15 K, 101.33 kPa, x1 = 0.4	0.603 ± 0.016 mPa·s
298.15 K, 101.33 kPa, x1 = 0.5	0.607 ± 0.0061 mPa·s and 0.607 ± 0.016 mPa·s
298.15 K, 101.33 kPa, x1 = 0.6	0.608 ± 0.016 mPa·s
298.15 K, 101.33 kPa, x1 = 0.8	0.616 ± 0.017 mPa·s
298.15 K, 101.33 kPa, x2 = 0.145	0.6185 ± 0.0062 mPa·s
298.15 K, 101.33 kPa, x2 = 0.2147	0.6165 ± 0.0062 mPa·s
298.15 K, 101.33 kPa, x2 = 0.2942	0.6156 ± 0.0062 mPa·s
298.15 K, 101.33 kPa, x2 = 0.4187	0.6078 ± 0.0061 mPa·s
298.15 K, 101.33 kPa, x2 = 0.4944	0.6057 ± 0.0061 mPa·s
298.15 K, 101.33 kPa, x2 = 0.5926	0.6038 ± 0.006 mPa·s
298.15 K, 101.33 kPa, x2 = 0.6887	0.6029 ± 0.006 mPa·s
298.15 K, 101.33 kPa, x2 = 0.7786	0.6012 ± 0.006 mPa·s
298.15 K, 101.33 kPa, x2 = 0.8938	0.6006 ± 0.006 mPa·s
298.15 K, 101.33 kPa, x2 = 0.9568	0.6008 ± 0.006 mPa·s
303.15 K, 101.3 kPa, x2 = 0.1358	0.5881 ± 0.0051 mPa·s
303.15 K, 101.3 kPa, x2 = 0.2562	0.5827 ± 0.005 mPa·s
303.15 K, 101.3 kPa, x2 = 0.3579	0.5777 ± 0.005 mPa·s
303.15 K, 101.3 kPa, x2 = 0.4426	0.5744 ± 0.005 mPa·s
303.15 K, 101.3 kPa, x2 = 0.5472	0.571 ± 0.005 mPa·s
303.15 K, 101.3 kPa, x2 = 0.6302	0.5678 ± 0.005 mPa·s
303.15 K, 101.3 kPa, x2 = 0.7423	0.5637 ± 0.0049 mPa·s
303.15 K, 101.3 kPa, x2 = 0.8318	0.5608 ± 0.0049 mPa·s
303.15 K, 101.3 kPa, x2 = 0.9404	0.5574 ± 0.0049 mPa·s
303.15 K, 101.33 kPa, x2 = 0.2323	0.583 ± 0.0053 mPa·s
303.15 K, 101.33 kPa, x2 = 0.4707	0.57 ± 0.0052 mPa·s
303.15 K, 101.33 kPa, x2 = 0.5427	0.568 ± 0.0052 mPa·s
303.15 K, 101.33 kPa, x2 = 0.7124	0.56 ± 0.0051 mPa·s
303.15 K, 101.33 kPa, x2 = 0.8608	0.561 ± 0.0051 mPa·s
308.15 K, 101.33 kPa, x1 = 0.1	0.528 ± 0.014 mPa·s
308.15 K, 101.33 kPa, x1 = 0.2	0.53 ± 0.014 mPa·s
308.15 K, 101.33 kPa, x1 = 0.4	0.535 ± 0.014 mPa·s
308.15 K, 101.33 kPa, x1 = 0.6	0.542 ± 0.015 mPa·s
308.15 K, 101.33 kPa, x1 = 0.8	0.551 ± 0.015 mPa·s
313.15 K, 101.33 kPa, x2 = 0.2323	0.521 ± 0.0048 mPa·s
313.15 K, 101.33 kPa, x2 = 0.5427	0.506 ± 0.0047 mPa·s
313.15 K, 101.33 kPa, x2 = 0.7124	0.498 ± 0.0046 mPa·s
313.15 K, 101.33 kPa, x2 = 0.8608	0.493 ± 0.0046 mPa·s
318.15 K, 101.33 kPa, x1 = 0.1	0.468 ± 0.013 mPa·s
318.15 K, 101.33 kPa, x1 = 0.2	0.471 ± 0.013 mPa·s
318.15 K, 101.33 kPa, x1 = 0.4	0.477 ± 0.013 mPa·s
318.15 K, 101.33 kPa, x1 = 0.5	0.481 ± 0.013 mPa·s
318.15 K, 101.33 kPa, x1 = 0.6	0.484 ± 0.013 mPa·s
318.15 K, 101.33 kPa, x1 = 0.8	0.492 ± 0.013 mPa·s
318.15 K, 101.33 kPa, x2 = 0.145	0.4939 ± 0.0049 mPa·s
318.15 K, 101.33 kPa, x2 = 0.2147	0.4912 ± 0.0049 mPa·s
318.15 K, 101.33 kPa, x2 = 0.2942	0.4912 ± 0.0049 mPa·s
318.15 K, 101.33 kPa, x2 = 0.4187	0.4812 ± 0.0048 mPa·s
318.15 K, 101.33 kPa, x2 = 0.4944	0.4774 ± 0.0048 mPa·s
318.15 K, 101.33 kPa, x2 = 0.5926	0.4737 ± 0.0047 mPa·s
318.15 K, 101.33 kPa, x2 = 0.6887	0.469 ± 0.0047 mPa·s
318.15 K, 101.33 kPa, x2 = 0.7786	0.4657 ± 0.0047 mPa·s
318.15 K, 101.33 kPa, x2 = 0.8938	0.4621 ± 0.0046 mPa·s
318.15 K, 101.33 kPa, x2 = 0.9568	0.4607 ± 0.0046 mPa·s
323.15 K, 101.33 kPa, x1 = 0.1	0.44 ± 0.012 mPa·s
323.15 K, 101.33 kPa, x1 = 0.2	0.443 ± 0.0044 mPa·s and 0.443 ± 0.012 mPa·s
323.15 K, 101.33 kPa, x1 = 0.4	0.449 ± 0.012 mPa·s
323.15 K, 101.33 kPa, x1 = 0.5	0.453 ± 0.0045 mPa·s and 0.453 ± 0.012 mPa·s
323.15 K, 101.33 kPa, x1 = 0.6	0.456 ± 0.012 mPa·s
323.15 K, 101.33 kPa, x1 = 0.8	0.466 ± 0.013 mPa·s
323.15 K, 101.33 kPa, x2 = 0.2323	0.469 ± 0.0044 mPa·s
323.15 K, 101.33 kPa, x2 = 0.4707	0.456 ± 0.0043 mPa·s
323.15 K, 101.33 kPa, x2 = 0.5427	0.453 ± 0.0043 mPa·s
323.15 K, 101.33 kPa, x2 = 0.7124	0.443 ± 0.0042 mPa·s
323.15 K, 101.33 kPa, x2 = 0.8608	0.44 ± 0.0042 mPa·s

CCCCn1cc[n+](C)c1.F[P-](F)(F)(F)(F)F + CC(C)=O
Conditions	viscosity [mPa·s]
298.15 K, 101 kPa, x2 = 0.1935	88.9 ± 21

COC(C)(C)C + CCCCCCO
viscosity [mPa·s], 101 kPa
Conditions	x1 = 0.0204	x1 = 0.0304	x1 = 0.0495
298.15 K	4.315 ± 0.18	4.175 ± 0.17	3.925 ± 0.16
303.15 K	–	–	3.395 ± 0.14

CCOP(=O)(OCC)OCC + CN(C)C=O
298.15 K, 101.3 kPa
Conditions	viscosity [mPa·s]
x1 = 0.1003	0.883 ± 0.021
x1 = 0.2008	0.967 ± 0.021
x1 = 0.298	1.044 ± 0.021
x1 = 0.398	1.123 ± 0.021
x1 = 0.4979	1.195 ± 0.021
x1 = 0.6076	1.268 ± 0.021
x1 = 0.6995	1.329 ± 0.021
x1 = 0.7969	1.389 ± 0.022
x1 = 0.8973	1.447 ± 0.022

CC(F)(F)F + FC(F)C(F)(F)F
viscosity [mPa·s], 101 kPa
Conditions	x1 = 0.248	x1 = 0.5	x1 = 0.759
298.15 K	0.1286 ± 0.0029	0.1205 ± 0.0028	0.117 ± 0.0027
313.15 K	0.1036 ± 0.0024	–	–

CCCCC(CC)CN (stereo not drawn) + COCCOCCOCCOC
viscosity [mPa·s], 101.33 kPa
Conditions	x2 = 0.0746	x2 = 0.153	x2 = 0.237	x2 = 0.326	x2 = 0.42	x2 = 0.521	x2 = 0.629	x2 = 0.744	x2 = 0.867
303.2 K	1.02 ± 0.05	1.05 ± 0.07	1.13 ± 0.06	1.19 ± 0.06	1.25 ± 0.06	1.32 ± 0.07	1.39 ± 0.08	1.54 ± 0.08	1.64 ± 0.08
313.2 K	0.88 ± 0.04	0.9 ± 0.05	0.97 ± 0.05	1.01 ± 0.05	1.06 ± 0.05	1.11 ± 0.06	1.16 ± 0.06	1.31 ± 0.07	1.39 ± 0.07

[Cl-].[Cs+] + O
310.15 K, 101 kPa
Conditions	viscosity [mPa·s]
x1 = 0.000182	0.6996 ± 0.0061
x1 = 0.000907	0.7002 ± 0.0062
x1 = 0.001823	0.7061 ± 0.0063
x1 = 0.002695	0.7089 ± 0.0063
x1 = 0.003679	0.7129 ± 0.0064
x1 = 0.005197	0.719 ± 0.0065
x1 = 0.005988	0.7223 ± 0.0066

CCc1ccccc1 + CO
viscosity [mPa·s], 101 kPa
Conditions	x2 = 0.1406	x2 = 0.3326	x2 = 0.5278	x2 = 0.6721	x2 = 0.7828	x2 = 0.8113	x2 = 0.8848
298.15 K	0.6135 ± 0.016	0.6134 ± 0.016	0.6258 ± 0.016	0.6323 ± 0.016	0.6247 ± 0.016	0.618 ± 0.016	0.5991 ± 0.015
308.15 K	0.5262 ± 0.014	0.5283 ± 0.014	0.5395 ± 0.014	0.5368 ± 0.014	0.525 ± 0.014	0.5202 ± 0.013	0.5052 ± 0.013

CCCCn1cc[n+](C)c1.F[P-](F)(F)(F)(F)F + CS(C)=O
Conditions	viscosity [mPa·s]
298.15 K, 101 kPa, x1 = 0.7812	117.5 ± 28

CCOP(=O)(OCC)OCC + CNC=O
298.15 K, 101.3 kPa
Conditions	viscosity [mPa·s]
x1 = 0.0969	1.719 ± 0.024
x1 = 0.1954	1.713 ± 0.023
x1 = 0.294	1.689 ± 0.023
x1 = 0.399	1.654 ± 0.023
x1 = 0.5004	1.625 ± 0.023
x1 = 0.5987	1.599 ± 0.022
x1 = 0.6978	1.571 ± 0.022
x1 = 0.799	1.546 ± 0.022
x1 = 0.8929	1.524 ± 0.022
